Experimental data from patent US20040038944A1, “Compositions and methods of preventing or reducing the risk or incidence of skeletal injuries in horses” (Merck & Co., Inc., priority 2000, published 2004).

How the values were obtained:
C-telopeptides (C-Tx) = conditions: alendronate injection, horses confined to stall rest for 56 days, versus saline
Text: (§1) Bone metabolism is monitored using standard techniques, i.e. serum assays to determine levels of markers of bone turnover, bone resorption and bone formation and ultrasound is used to assess changes in bone density.
(§2) Materials and Methods: Sixteen healthy adult thoroughbred horses (eight mares and eight male castrates) which had previously been running at pasture for at least 4 months are used.
(§3) The horses are randomly allocated to 4 treatment groups of four horses, each containing two mares and two male castrates. Serum samples are collected and ultrasound measurements are taken on three occasions directly before commencement of stall rest. Assays are conducted on the serum samples to determine pre-confinement levels of C-telopeptides (C-Tx; a collagen breakdown product that is a marker of bone resorption); osteocalcin (a marker of bone turnover) and bone specific alkaline phosphatase (a marker of bone formation). Ultrasound is used to measure the speed of transmission of sound waves through the bone.
(§4) Stall rest is commenced the day of first treatment. Serum samples are taken twice weekly and ultrasound measurements are taken each 14 days for the 56 days of the study to monitor changes in bone metabolism markers and in bone density relative to pre-confinement values. At the end of the study the horses are returned to the pasture.

[1] = system: bone specific alkaline phosphatase; conditions: Groups 2-4, i.v., 56 days stall rest; also reduced in placebo
Text: as §1, §2, §3, §4

SMILES: NCCCC(O)(P(=O)(O)O)P(=O)(O)O [alendronate, 4-amino-1-hydroxybutylidene-1,1-bisphosphonic acid monosodium trihydrate]
- bone resorption (result in words) (C-telopeptides (C-Tx)): suppressed bone resorption
- marker for bone formation (bone specific alkaline phosphatase) [1]: reduced
